Marks after values point to notes of the source that are not given here.
What was measured:
[1] = system: hippocampal neurons; assay: Neurite outgrowth, hippocampal neurons; format: cell-based, rat; conditions: 24 h
Procedure: The cultures were subsequently immunostained for tyrosine hydroxylase. Hippocampal neurons and CGN were plated at a density of 10,000 cells/cm^2 on 8-well permanox chamber slides and incubated for 24 hours in the presence of various concentrations of FGLd. Subsequently the neurons were immunostained for GAP-43. Results from at least five independent experiments for each neuronal culture are shown as percentage ±SEM with the untreated controls set at 100%. *p<0.05, **p<0.01, ***p<0.001 when compared to the controls.
Results from at least four independent experiments are shown as percentage SEM with untreated controls set at 100%. **p<0.01 when compared to the controls.
Peptide solutions without or with inhibitors of various signal transduction pathways were added to a total volume of 300 μl/cm^2, and the slides were incubated at 37° C. After 24 hours, the neurons were fixed with 4% (v/v) formaldehyde for 20 minutes and thereafter immunostained using primary rabbit antibodies against GAP-43 and Alexa Fluor secondary goat anti-rabbit antibodies. Images of at least 200 neurons for each group in each individual experiment were obtained systematically by using computer assisted fluorescence microscopy as previously described (Rønn et al., 2000 op. cit.). Briefly, a Nikon Diaphot inverted microscope with a Nikon Plan 20× objective (Nikon, Tokyo, Japan) coupled to a video camera (Grundig Electronics, Germany) was used for recordings. The same software package as described above for the dopaminergic neurite outgrowth assay was used to process the recorded images.

[2] = system: dissociated hippocampal neurons; assay: OGD, FM 1-43 release in dissociated hippocampal cell cultures; format: cell-based, rat
Description: In the present study it was investigated the effect of the FGL peptide on synaptic plasticity, neuronal function and vulnerability following oxygen and glucose deprivation (OGD) in organotypic hippocampal neuronal slice cultures (OHSC) from 7-day-old Wistar rats according to method of Stoppini et al. (1991) Neurosci Methods. 37:173-82 and primary cultures of dissociated hippocampal neurons from 1-day-old rats according to method of Maar et al. (1997) J Neurosci Res. 47:163-72. Primary cell cultures were maintained for 11-12 days and OHSC for 12-14 days prior to adding FGLd.
The primary cell cultures and OHSC were exposed to OGD for 10 and 20 minutes. Following OGD, the cultures were again supplied with oxygen and glucose and analysed at 1, 4 or 24 hour time point after introduction of OGD exposure. FGLd (or the control peptide FGLc) was added 24 hr before, immediately, or 1 hr or 24 hr after OGD. When administered prior to OGD, FGLd was removed from the medium when introducing OGD. In some cases, the slice cultures were treated with FGLd only at 4 hr after OGD. In addition, the FGFR inhibitor, SU5402 (25 μM), was added together with FGLd in some of the set-ups.
In hippocampal neuronal cultures, FM 1-43 staining was used to evaluate pre-synaptic function (described above). Cell viability in both primary cell cultures and OHSC was measured using the […] [3-(4,5-dimethylthiazol-2-yl)-2,5-diphenyltetrazolium bromide] assay according to Malich et al, (1997) Toxicology. 124:179-92. In, addition, cell viability in OHSC was measured using propidium iodide (PI) staining according to Laake et al. (1999) Brain Res Brain Res Protoc. 4:173-84.

[3] = system: adult male Wistar rats; assay: Contextual Fear Conditioning test; format: in vivo, rat; conditions: 5 μg immediately after training
Description: In the Contextual Fear Conditioning test, rats experienced inescapable shocks when exposed to a *new environment, which results in the development of a conditioned fear response, consisting of a characteristic immobility or ‘freezing response’, when subsequently re-exposed to the same environment.
The rats were handled for 120 seconds every day for 3 days preceding the first day of the experiment. On day 1 (training), the rats received a 1-second shock (unconditioned stimuli) each minute for two minutes. Animals were injected immediately after training with 5 μl FGLd (5 μg), the control peptide (5 μg) or the vehicle. Each treatment group consisted of 11-14 rats. In total, 39 animals were evaluated. Animals were tested on days 2, 7 and 30 by placing them in the chamber used for conditioning, but in the absence of a shock, for 8 minutes. Each rat was rated as either “freezing” or “active”, every 2 seconds, using a time-sampling procedure.

[4] = system: cerebellar granule neurons (CGN); assay: Survival of CGN induced to undergo apoptosis by low KCl; conditions: for Neuronal Survival (% of Control): Low K+ (5 mM)
Procedure: Cerebella granular meurons (CGN) (e and f) from postnatal day 7 rats were grown at a density of 100,000 cells/cm^2 for 7 days on poly-L-lysine coated microtiter plates in the medium containing 40 mM KCl, then the medium was substituted to a 5 mM KCl containing medium supplemented with various concentrations of FGLd.
For the experiments cerebellar tissue was dissected in modified Krebs-Ringer solution kept on ice, and treated as described for the hippocampal neurons above. All cell cultures were incubated at 37° C. in a humidified atmosphere containing 5% CO2.
Primary cultures of CGN were plated at a density of 100,000 cells/cm^2 on poly-L-lysine coated 8-well permanox slides in Neurobasal-A medium (Gibco, BRL) supplemented with 2% (v/v) B27, 0.5% (v/v) glutamax, 100 U/ml penicillin, 100 μg/ml streptomycin and KCl, making the final concentration of KCl in the medium 40 mM. 24 hours after plating, cytosine-β-D-arabinofuranoside (Ara-C; Sigma-Aldrich) was added to a final concentration of 10 μM to avoid proliferation of glial cells, after which the neurons were allowed to differentiate for further six days at 37° C. Apoptotic cell death was induced by washing twice and changing the medium to Basal Medium Eagle (BME; Gibco BRL) supplemented with 1% (v/v) glutamine, 100 U/ml penicillin and 100 μg/ml streptomycin, 3.5 g D-glucose/l and 1% (v/v) sodium pyruvate (Gibco BRL) together with various concentrations of peptide. Thereby the concentration of potassium in the cultures was reduced to 5 mM KCl. Two days after induction of apoptosis, the cells were fixed with 4% formaldehyde and stained with Hoechst 33258 as described for the survival assay employing hippocampal neurons.

[5] = system: hippocampal neurons; assay: Survival of hippocampal neurons exposed to Aβ25-35; format: cell-based, rat; conditions: for Neuronal Survival (% of Control): β-amyloid, Hippocampal (E19)
Procedure: For the experiments dissociated hippocampal neurons were isolated from Wistar rat embryos at embryonic day 19 or newborn rats as described by Rønn et al. (1999) Nat. Biotechnol. 17:1000-5.
Briefly, hippocampus was isolated from the brain in ice cold modified Krebs Ringer solution, cleared of blood vessels, roughly homogenised by chopping and then trypsinised. The dissociated cells were washed in the presence of DNAse 1 and soybean trypsin inhibitor.
For the assay neurons were plated at a density of 40,000 cells/cm^2 on 8-well permanox slides coated with 10 μg/ml poly-L-lysine in Neurobasal medium. 15 minutes after plating, Aβ25-35 was added to a final concentration of 20 μM. The Aβ25-35 had prior to plating been dissolved in sterile deionized water to a concentration of 3 mM and incubated at 37° C. for four days according to Pigino et al. (2001) J. Neurosci. 21:834-42. This treatment induces fibrillation of the Aβ-peptide fragment, thereby increasing its neurotoxic activity. The neurons were incubated with Neurobasal medium containing the FGL peptide for 70 hours, fixed with 4% (v/v) formaldehyde, and stained with Hoechst 33258 for 25 minutes as described by Kruman et al. (1997). Images of 1000-1500 neurons were randomly recorded for each group in each experiment using computer assisted fluorescence microscopy as described for the hippocampal neurite outgrowth assay. Nuclei from dead and live neurons were counted using the software package Prima developed at the Protein Laborator, Copenhagen University, and the fraction of live neurons relative to the total number of neurons was estimated.

With “FGLd: MAP-type dendrimer of FGL; dendrimeric tetramer of the FGL peptide (EVYVVAENQQGKSKA)” the “neurite length, hippocampal neurons, plateau-like level” value ([1]; 0.04 up to 20 μg/ml, untreated control = 100%) was “approximately 150%”, the “Effect on Neurite Length (Percent Increase vs. Control)” value ([1]; HN E19, 3 μg/mL) was 65% and the “Effect on Neurite Length (Percent Increase vs. Control)” value ([1]; HN E19, 9 μg/mL) was 51%. The “Effect on Neurite Length (Percent Increase vs. Control)” value ([1]; HN E19, 27 μg/mL) was 69%, the “Effect on Neurite Length (Percent Increase vs. Control)” value ([1]; HN Newborn, 0.04 μg/mL) was 38% and the “Effect on Neurite Length (Percent Increase vs. Control)” value ([1]; HN Newborn, 5 μg/mL) was 45%. The “rate of FM 1-43 release after OGD” value ([2]; treated 24 hours before or immediately after OGD) was “the OGD-induced decrease in the rate of FM 1-43 release was diminished”, the “rate of pre-synaptic vesicle release (FM 1-43 destaining) upon high potassium stimulation” value ([2]; treatment without OGD, control 0.04) was 0.06 s⁻¹ and the “percentage of freezing time” value ([3]; day 2 after conditioning, control 50.5%) was 73.5%. For the same substance, the “percentage of freezing time” value ([3]; day 7 after conditioning, control 30.0%) was 60.3%, the “Neuronal Survival (% of Control)” value ([4]; CGN (PND 3-4), 1 μg/mL) was 131%* % of Control and the “Neuronal Survival (% of Control)” value ([4]; CGN (PND 3-4), 5 μg/mL) was 110%* % of Control. For the same substance, the “Neuronal Survival (% of Control)” value ([4]; CGN (PND 3-4), 10 μg/mL) was 132%* % of Control, the “Neuronal Survival (% of Control)” value ([4]; CGN (PND 3-4), 20 μg/mL) was 117%** % of Control and the “Neuronal Survival (% of Control)” value ([4]; CGN (PND 7-8), 20 μg/mL) was 175%* % of Control. The “maximal neuroprotection of CGN” value ([4]; at 1-10 μg/ml, controls grown at low KCl = 100%) was 135%, the “neuroprotection of hippocampal neurons, maximal level” value ([5]; at 0.3 μg/ml, 20 μM Aβ25-35, Aβ25-35-treated controls = 100%) was 110% and the “Neuronal Survival (% of Control)” value ([5]; 0.01 μg/mL) was 109%** % of Control. For the same substance, the “Neuronal Survival (% of Control)” value ([5]; 3 μg/mL) was 107%** % of Control and the “Neuronal Survival (% of Control)” value ([5]; 9 μg/mL) was 107%** % of Control.

From patent US20090105149A1, “Compounds comprising lpa” (ENKAM PHARMACEUTICALS A/S, priority 2003, published 2009)
